Laboratory results taken from US8592431B2, “Fused ring compound and use thereof” (Takeda Pharmaceutical Company Limited, priority 2009, dated 2013).

Columns and labels:
Male SHRs = test: Antihypertensive effect: mean blood pressure in SHRs after oral administration; assay type: in vivo, rat; details: SHR, during 24 hours after administration
Method: Male SHRs (28-40 weeks old, Japan SLC, Inc., Japan) were anesthetized with sodium pentobarbital (50 mg/kg, i.p.). The left femoral artery was cannulated with a polyethylene catheter filled with saline comprising heparin (200 U/mL). The catheter was exteriorized at the back of the neck and each SHR was individually housed in a cage and left two or four days to recover. The mean blood pressure (MBP) was obtained from the systemic blood pressure which was monitored from the femoral artery using a pressure transducer connected to a polygraph system (Nihon Kohden Corporation). The heart rate was measured from the blood pressure pulse intervals. The rats which had MBP over 150 mmHg were used for the experiment. When the blood pressure had stabilized, vehicle (0.5 w/v % methylcellulose) or compounds were orally administered. All compounds were suspended in 0.5 w/v % methylcellulose and orally administered at a volume of 2 mL/kg. The MBP was measured during 24 hours after the administration.

Male Wistar fatty rats = test: Plasma triglyceride and glucose lowering in Wistar fatty rats, oral, once a day for 2 weeks; assay type: in vivo, rat; details: versus vehicle group
Method: Male 25-31 weeks-old Wistar fatty rats (Takeda Pharmaceutical Company) were divided to each group with equalization of plasma levels of triglyceride, glucose and body weight in fed condition. The groups of rats were treated with vehicle (0.5 w/v % methylcellulose) or compounds. All compounds were suspended in 0.5 w/v % methylcellulose and orally administered at a volume of 2 mL/kg, once a day for 2 weeks. The next day of the final administration, blood was collected from the tail vein to measure plasma parameters. Heparin was used as an anticoagulant. Plasma levels of triglyceride and glucose were measured enzymatically using Hitachi Autoanalyser 9000. The inhibition rates from vehicle treatment group were calculated for each compound after the treatment for 2 weeks.

human AT1 receptor = human AT1 receptor (Homo sapiens (Human), UniProt P30556); test: AT1 receptor antagonistic activity: [125I]-angiotensin II binding assay with AT1 membrane; details: 22.5 pM [125I]-angiotensin II, human AT1 receptor-expressing CHO-K1 membrane, 1 hr room temperature
Sequence of human AT1 receptor (P30556 whole entry): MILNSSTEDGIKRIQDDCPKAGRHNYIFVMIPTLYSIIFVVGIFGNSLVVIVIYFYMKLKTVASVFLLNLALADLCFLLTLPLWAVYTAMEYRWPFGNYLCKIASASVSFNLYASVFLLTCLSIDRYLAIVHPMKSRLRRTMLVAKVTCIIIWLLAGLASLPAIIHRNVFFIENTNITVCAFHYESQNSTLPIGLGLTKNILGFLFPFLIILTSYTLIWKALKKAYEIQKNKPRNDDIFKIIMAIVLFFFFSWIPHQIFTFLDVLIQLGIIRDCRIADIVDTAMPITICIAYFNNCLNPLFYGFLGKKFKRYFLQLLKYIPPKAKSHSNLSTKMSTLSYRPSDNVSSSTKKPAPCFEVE
Method: Evaluation of AT1 Receptor Antagonistic Activity
(1) Preparation of Human AT1 Receptor-Expressing CHO-K1 Cellular Membrane Fraction
CHO-K1 cell (RIKEN, Japan) capable of stable expression of human AT1 receptor was cultured, recovered, suspended in homogenize buffer (10 mM NaHCO3 (pH 7.4), 5 mM EDTA, 1× Complete EDTA free) [manufactured by Roche, Switzerland], and homogenized. The homogenate was centrifuged at low-speed (900×g, 10 min, 4° C.), and the supernatant was recovered and ultracentrifuged (90,000×g, 1 hr, 4° C.). The supernatant was discarded, and the pellets were resuspended in suspension buffer (50 mM Tris (pH 7.4), 1 mM EDTA, 1× Complete EDTA free).
(2) Evaluation of AT1 Receptor Antagonistic Activity
(9 μg) in the presence of AT1 membrane and test compound in 100 μL (total reaction volume) of reaction buffer (50 mM Tris (pH 7.4), 10 mM MgCl2 supplemented or not supplemented with 0.3 mg/mL fatty acid-free bovine serum albumin [manufactured by Wako Pure Chemical Industries, Ltd., Japan]). The reaction mixture was incubated in 96 well polypropylene plate for 1 hr at room temperature, and the reaction was quenched by rapid filtration (96 well cell harvester) through a GF/C filter treated with wash buffer (50 mM Tris (pH 7.4)). Subsequently, the filter was washed 5 times with 0.3 mL of ice-cooled wash buffer. […] Total binding was measured in the presence of 1% DMSO and nonspecific binding was measured in the presence of 1 μM Candesartan.

[1] = 10 mg/kg once a day for 2 weeks
[2] = 30 mg/kg once a day for 2 weeks

| SMILES | Maximum MBP reduction (mmHg) (Male SHRs; dose 30 mg/kg) | Inhibition rate of plasma glucose (%) (Male Wistar fatty rats; 3 mg/kg once a day for 2 weeks) | Inhibition rate of plasma triglyceride (%) (Male Wistar fatty rats; 3 mg/kg once a day for 2 weeks) | Inhibition rate of plasma glucose (%) (Male Wistar fatty rats; [1]) | Inhibition rate of plasma triglyceride (%) (Male Wistar fatty rats; [1]) | Inhibition rate of plasma glucose (%) (Male Wistar fatty rats; [2]) | Inhibition rate of plasma triglyceride (%) (Male Wistar fatty rats; [2]) | Maximum MBP reduction (mmHg) (Male SHRs; dose 10 mg/kg) | IC50 (human AT1 receptor) | Maximum MBP reduction (mmHg) (Male SHRs; dose 3 mg/kg) |
| --- | --- | --- | --- | --- | --- | --- | --- | --- | --- | --- |
| CCCc1c(Cc2ccc(-c3ccccc3-c3noc(=O)[nH]3)cc2F)c(=O)n(C2CCC(OC(C)C(C)(C)O)CC2)c2ncnn12 (single isomer, unassigned; (+)) [Example 458, hydrate] | 70 mmHg | −0.2% | 33.5% | 6.9% | 39.0% | 43.3% | 59.2% | – | – | – |
| CCCc1c(Cc2ccc(-c3ccccc3-c3noc(=O)[nH]3)cc2)c(=O)n([C@H]2CC[C@H](OCC(C)(C)O)CC2)c2ccnn12 [Example 413, 4-[trans-4-(2-Hydroxy-2-methylpropoxy)cyclohexyl]-6-{[2′-(5-oxo-4,5-dihydro-1,2,4-oxadiazol-3-yl)biphenyl-4-yl]methyl}-7-propylpyrazolo[1,5-a]pyrimidin-5(4H)-one] | – | 6.5% | 12.0% | 19.1% | 21.5% | 53.3% | 46.0% | 79 mmHg | 1.6 nM | – |
| CCCc1c(Cc2ccc(-c3ccccc3-c3noc(=O)[nH]3)cc2)c(=O)n([C@H]2CC[C@H](OCC(C)(C)O)CC2)c2ccnn12.[K] [Example 415, 4-[trans-4-(2-hydroxy-2-methylpropoxy)cyclohexyl]-6-{[2′-(5-oxo-4,5-dihydro-1,2,4-oxadiazol-3-yl)biphenyl-4-yl]methyl}-7-propylpyrazolo[1,5-a]pyrimidin-5(4H)-one potassium salt] | – | 25.1% | 38.1% | 54.3% | 57.7% | – | – | – | – | 63 mmHg |
